For assay [1], the system named is uptake of each ligand into kidney tissues through megalin. The conditions noted are these: cilastatin sodium 400 mg/kg intraperitoneally, urine collected 3 hours. As for the experimental part: Cilastatin was administered to mice and changes in concentrations of each ligand in urine were observed.
Five mice (male, aged 12 weeks C57BL/6) were intraperitoneally administered with 400 mg/kg (diluted in 100 μL of normal saline, cilastatin-treated group) of cilastatin sodium (Sigma-Aldrich Japan K.K., C5743), and then put in a metabolic cage for 3 hours to collect urine, and the urines of 5 mice were combined. Additionally, 100 μL of normal saline was administered to another group of 5 mice (control group), and the same experiment as above was conducted.
Proteins were isolated from the obtained urine samples by electrophoresis (SDS-polyacrylamide gel), reductively alkylated (using dithiothreitol and iodoacetamide), digested with trypsin, and the obtained peptides were extracted to obtain a solid.
To the obtained solid, 15 μL of 0.3% formic acid (FA) was added, shaken for 5 minutes, sonicated for 1 minute, and shaken again for 5 minutes. The resultant mixture was spun down, applied to a membrane filter having a pore diameter of 0.45 μm (ULtra free-MC, HV, 0.45 μm, Millipore), centrifuged at 10,000 rpm for 5 minutes, and the sample passed through the filter was subjected to LCMS analysis.
AnaLyst® TF1.6 (AB SCIEX) was used as an LCMS/MS data acquisition and analysis software, and the obtained raw data were converted to a peak list file (mgf file format), whereby MS/MS Ion Search (MIS search) was conducted using Matrix Science Mascot daemon, Mascot server 2.2.1. The sequence data base used was Uniprot, Swiss-Prot. Significance threshold was set to 0.05 (false discovery rate of less than 5%), and the proteins having 2 or more peptides exceeding the identification standard were listed as identified proteins.
Raw data were acquired 2 times per sample at LCMS to cover the issue of analysis reproducibility at LCMS, and the peak list files obtained from the 2 runs were combined and analyzed using Mascot (Ohara et al., 2018, PLoS One, vol. 13, 1, e0204160).
To the proteins identified in common in 2 groups when compared, the spectral count method was used, which is a label-free comparative, semiquantitative analysis method utilizing a principle that a large number of peptide fragments will be identified in those expressed at high levels, resulting in the increase in the number of MS/MS. In other words, the proteins identified in both of the cilastatin-treated group and control group were calculated for an SpC/L ratio (spectral abundance factor: SAF) of the cilastatin-treated group/control group, and the proteins having an SpC/L ratio of 2.0 or more were listed as the proteins abundant in urine of the cilastatin-treated group.

Assay [2] has as its target megalin (binding to myoglobin) (Rattus norvegicus, UniProt P98158). To be noted: 1 mg of cilastatin injected into buffer (200 μL) in advance; FIG. 2-1. From the text:
(§1) Binding specificity between megalin and each ligand (myoglobin, α1M, and Hx) and the possible binding inhibition by cilastatin were verified using the quartz crystal microbalance (QCM) method by reference to the method described in PTL 2.
(§2) For the ligands to be verified, myoglobin (LifeSpan Biosciences Inc., Rat […] Native Protein, LS-G11201) and Hx (Sino Biological Inc., Rat Hemopexin/HPX protein (His Tag 81025-R08H)) were used. […]
(§3) After each of the ligand- or BSA-immobilized quartz crystal sensor was mounted in the measurement instrument AFFINIX® Q8 (Initium Inc.) and the frequency was confirmed to be stable, 8 μL of a 0.1 mg/mL solution of megalin purified from Sprague-Dawley (SD) rat kidneys according to the method of Orlando et al. was injected and frequency was measured with time.
(§4) More specifically, the megalin solution was reacted with each of the ligand-immobilized quartz crystal sensors placed under the water surface with 200 μL of buffer, and the frequency was measured.
(§5) Additionally, 1 mg of cilastatin was injected into buffer in advance, each of the ligand-immobilized quartz crystal sensors was mounted in the measurement instrument, and after the frequency was confirmed to be stable, the megalin solution was injected and frequency was measured with time, whereby the antagonistic activity of cilastatin against the binding of each ligand to megalin was analyzed. […]

The target in the next assay is megalin (binding to Hx) (Rattus norvegicus, UniProt P98158). To be noted: 1 mg of cilastatin injected into buffer (200 μL) in advance; FIG. 2-1.
Source text: as §1, §2, §3, §4, §5

In the next assay the target is megalin (binding to α1M) (Rattus norvegicus, UniProt P98158). To be noted: 1 mg/200 μL of cilastatin injected into buffer in advance; FIG. 2-2.
Source text: as §1

Assay [3] has as its system rhabdomyolysis model mice. To be noted: 400 mg/kg intraperitoneally; 24 hours after glycerol administration; vs normal saline control group; FIG. 1.
Method: Serum potassium, which elevates when a renal function is reduced, was measured to verify whether the onset of renal injuries in rhabdomyolysis model mice is inhibited by cilastatin administration.
To C57BL/6 (male, aged 10-12 weeks), 5 mL/kg of a solution of 50% volume/volume glycerol (FUJIFILM Wako Pure Chemical Corporation)/PBS was prepared, and the solution was intramuscularly injected to the right hind limb, thereby constructing rhabdomyolysis nephropathy models. The administered animals were divided into 2 groups (6 mice per group), and intraperitoneally administered with a) 400 mg/kg (diluted in 100 μL of normal saline) of cilastatin (Sigma-Aldrich Inc.) or b) 100 μL of normal saline as a control.
The serum was stored at −80° C. until analysis and the measurement of serum potassium was conducted by Oriental Yeast Co., Ltd.
Assay [4] relates to myoglobin uptake into kidney tissues. To be noted: rhabdomyolysis model mice; 24 hours after glycerol dosing; anti-myoglobin immunostaining; FIG. 5. Here is the method: In line with Test Example 1, 50% glycerol was administered to C57BL/6 (male, aged 10-12 weeks), thereby constructing rhabdomyolysis model mice.
Twenty-four hours after glycerol dosing, a portion containing a kidney pedicle was sliced to 3 mm thickness from the right kidney and fixed with 4% paraformaldehyde phosphate buffer.

Where [5] appears, read: cilastatin-treated group/control group, pooled from 5 mice.

Chain of megalin (binding to α1M) (P98158 26-4660): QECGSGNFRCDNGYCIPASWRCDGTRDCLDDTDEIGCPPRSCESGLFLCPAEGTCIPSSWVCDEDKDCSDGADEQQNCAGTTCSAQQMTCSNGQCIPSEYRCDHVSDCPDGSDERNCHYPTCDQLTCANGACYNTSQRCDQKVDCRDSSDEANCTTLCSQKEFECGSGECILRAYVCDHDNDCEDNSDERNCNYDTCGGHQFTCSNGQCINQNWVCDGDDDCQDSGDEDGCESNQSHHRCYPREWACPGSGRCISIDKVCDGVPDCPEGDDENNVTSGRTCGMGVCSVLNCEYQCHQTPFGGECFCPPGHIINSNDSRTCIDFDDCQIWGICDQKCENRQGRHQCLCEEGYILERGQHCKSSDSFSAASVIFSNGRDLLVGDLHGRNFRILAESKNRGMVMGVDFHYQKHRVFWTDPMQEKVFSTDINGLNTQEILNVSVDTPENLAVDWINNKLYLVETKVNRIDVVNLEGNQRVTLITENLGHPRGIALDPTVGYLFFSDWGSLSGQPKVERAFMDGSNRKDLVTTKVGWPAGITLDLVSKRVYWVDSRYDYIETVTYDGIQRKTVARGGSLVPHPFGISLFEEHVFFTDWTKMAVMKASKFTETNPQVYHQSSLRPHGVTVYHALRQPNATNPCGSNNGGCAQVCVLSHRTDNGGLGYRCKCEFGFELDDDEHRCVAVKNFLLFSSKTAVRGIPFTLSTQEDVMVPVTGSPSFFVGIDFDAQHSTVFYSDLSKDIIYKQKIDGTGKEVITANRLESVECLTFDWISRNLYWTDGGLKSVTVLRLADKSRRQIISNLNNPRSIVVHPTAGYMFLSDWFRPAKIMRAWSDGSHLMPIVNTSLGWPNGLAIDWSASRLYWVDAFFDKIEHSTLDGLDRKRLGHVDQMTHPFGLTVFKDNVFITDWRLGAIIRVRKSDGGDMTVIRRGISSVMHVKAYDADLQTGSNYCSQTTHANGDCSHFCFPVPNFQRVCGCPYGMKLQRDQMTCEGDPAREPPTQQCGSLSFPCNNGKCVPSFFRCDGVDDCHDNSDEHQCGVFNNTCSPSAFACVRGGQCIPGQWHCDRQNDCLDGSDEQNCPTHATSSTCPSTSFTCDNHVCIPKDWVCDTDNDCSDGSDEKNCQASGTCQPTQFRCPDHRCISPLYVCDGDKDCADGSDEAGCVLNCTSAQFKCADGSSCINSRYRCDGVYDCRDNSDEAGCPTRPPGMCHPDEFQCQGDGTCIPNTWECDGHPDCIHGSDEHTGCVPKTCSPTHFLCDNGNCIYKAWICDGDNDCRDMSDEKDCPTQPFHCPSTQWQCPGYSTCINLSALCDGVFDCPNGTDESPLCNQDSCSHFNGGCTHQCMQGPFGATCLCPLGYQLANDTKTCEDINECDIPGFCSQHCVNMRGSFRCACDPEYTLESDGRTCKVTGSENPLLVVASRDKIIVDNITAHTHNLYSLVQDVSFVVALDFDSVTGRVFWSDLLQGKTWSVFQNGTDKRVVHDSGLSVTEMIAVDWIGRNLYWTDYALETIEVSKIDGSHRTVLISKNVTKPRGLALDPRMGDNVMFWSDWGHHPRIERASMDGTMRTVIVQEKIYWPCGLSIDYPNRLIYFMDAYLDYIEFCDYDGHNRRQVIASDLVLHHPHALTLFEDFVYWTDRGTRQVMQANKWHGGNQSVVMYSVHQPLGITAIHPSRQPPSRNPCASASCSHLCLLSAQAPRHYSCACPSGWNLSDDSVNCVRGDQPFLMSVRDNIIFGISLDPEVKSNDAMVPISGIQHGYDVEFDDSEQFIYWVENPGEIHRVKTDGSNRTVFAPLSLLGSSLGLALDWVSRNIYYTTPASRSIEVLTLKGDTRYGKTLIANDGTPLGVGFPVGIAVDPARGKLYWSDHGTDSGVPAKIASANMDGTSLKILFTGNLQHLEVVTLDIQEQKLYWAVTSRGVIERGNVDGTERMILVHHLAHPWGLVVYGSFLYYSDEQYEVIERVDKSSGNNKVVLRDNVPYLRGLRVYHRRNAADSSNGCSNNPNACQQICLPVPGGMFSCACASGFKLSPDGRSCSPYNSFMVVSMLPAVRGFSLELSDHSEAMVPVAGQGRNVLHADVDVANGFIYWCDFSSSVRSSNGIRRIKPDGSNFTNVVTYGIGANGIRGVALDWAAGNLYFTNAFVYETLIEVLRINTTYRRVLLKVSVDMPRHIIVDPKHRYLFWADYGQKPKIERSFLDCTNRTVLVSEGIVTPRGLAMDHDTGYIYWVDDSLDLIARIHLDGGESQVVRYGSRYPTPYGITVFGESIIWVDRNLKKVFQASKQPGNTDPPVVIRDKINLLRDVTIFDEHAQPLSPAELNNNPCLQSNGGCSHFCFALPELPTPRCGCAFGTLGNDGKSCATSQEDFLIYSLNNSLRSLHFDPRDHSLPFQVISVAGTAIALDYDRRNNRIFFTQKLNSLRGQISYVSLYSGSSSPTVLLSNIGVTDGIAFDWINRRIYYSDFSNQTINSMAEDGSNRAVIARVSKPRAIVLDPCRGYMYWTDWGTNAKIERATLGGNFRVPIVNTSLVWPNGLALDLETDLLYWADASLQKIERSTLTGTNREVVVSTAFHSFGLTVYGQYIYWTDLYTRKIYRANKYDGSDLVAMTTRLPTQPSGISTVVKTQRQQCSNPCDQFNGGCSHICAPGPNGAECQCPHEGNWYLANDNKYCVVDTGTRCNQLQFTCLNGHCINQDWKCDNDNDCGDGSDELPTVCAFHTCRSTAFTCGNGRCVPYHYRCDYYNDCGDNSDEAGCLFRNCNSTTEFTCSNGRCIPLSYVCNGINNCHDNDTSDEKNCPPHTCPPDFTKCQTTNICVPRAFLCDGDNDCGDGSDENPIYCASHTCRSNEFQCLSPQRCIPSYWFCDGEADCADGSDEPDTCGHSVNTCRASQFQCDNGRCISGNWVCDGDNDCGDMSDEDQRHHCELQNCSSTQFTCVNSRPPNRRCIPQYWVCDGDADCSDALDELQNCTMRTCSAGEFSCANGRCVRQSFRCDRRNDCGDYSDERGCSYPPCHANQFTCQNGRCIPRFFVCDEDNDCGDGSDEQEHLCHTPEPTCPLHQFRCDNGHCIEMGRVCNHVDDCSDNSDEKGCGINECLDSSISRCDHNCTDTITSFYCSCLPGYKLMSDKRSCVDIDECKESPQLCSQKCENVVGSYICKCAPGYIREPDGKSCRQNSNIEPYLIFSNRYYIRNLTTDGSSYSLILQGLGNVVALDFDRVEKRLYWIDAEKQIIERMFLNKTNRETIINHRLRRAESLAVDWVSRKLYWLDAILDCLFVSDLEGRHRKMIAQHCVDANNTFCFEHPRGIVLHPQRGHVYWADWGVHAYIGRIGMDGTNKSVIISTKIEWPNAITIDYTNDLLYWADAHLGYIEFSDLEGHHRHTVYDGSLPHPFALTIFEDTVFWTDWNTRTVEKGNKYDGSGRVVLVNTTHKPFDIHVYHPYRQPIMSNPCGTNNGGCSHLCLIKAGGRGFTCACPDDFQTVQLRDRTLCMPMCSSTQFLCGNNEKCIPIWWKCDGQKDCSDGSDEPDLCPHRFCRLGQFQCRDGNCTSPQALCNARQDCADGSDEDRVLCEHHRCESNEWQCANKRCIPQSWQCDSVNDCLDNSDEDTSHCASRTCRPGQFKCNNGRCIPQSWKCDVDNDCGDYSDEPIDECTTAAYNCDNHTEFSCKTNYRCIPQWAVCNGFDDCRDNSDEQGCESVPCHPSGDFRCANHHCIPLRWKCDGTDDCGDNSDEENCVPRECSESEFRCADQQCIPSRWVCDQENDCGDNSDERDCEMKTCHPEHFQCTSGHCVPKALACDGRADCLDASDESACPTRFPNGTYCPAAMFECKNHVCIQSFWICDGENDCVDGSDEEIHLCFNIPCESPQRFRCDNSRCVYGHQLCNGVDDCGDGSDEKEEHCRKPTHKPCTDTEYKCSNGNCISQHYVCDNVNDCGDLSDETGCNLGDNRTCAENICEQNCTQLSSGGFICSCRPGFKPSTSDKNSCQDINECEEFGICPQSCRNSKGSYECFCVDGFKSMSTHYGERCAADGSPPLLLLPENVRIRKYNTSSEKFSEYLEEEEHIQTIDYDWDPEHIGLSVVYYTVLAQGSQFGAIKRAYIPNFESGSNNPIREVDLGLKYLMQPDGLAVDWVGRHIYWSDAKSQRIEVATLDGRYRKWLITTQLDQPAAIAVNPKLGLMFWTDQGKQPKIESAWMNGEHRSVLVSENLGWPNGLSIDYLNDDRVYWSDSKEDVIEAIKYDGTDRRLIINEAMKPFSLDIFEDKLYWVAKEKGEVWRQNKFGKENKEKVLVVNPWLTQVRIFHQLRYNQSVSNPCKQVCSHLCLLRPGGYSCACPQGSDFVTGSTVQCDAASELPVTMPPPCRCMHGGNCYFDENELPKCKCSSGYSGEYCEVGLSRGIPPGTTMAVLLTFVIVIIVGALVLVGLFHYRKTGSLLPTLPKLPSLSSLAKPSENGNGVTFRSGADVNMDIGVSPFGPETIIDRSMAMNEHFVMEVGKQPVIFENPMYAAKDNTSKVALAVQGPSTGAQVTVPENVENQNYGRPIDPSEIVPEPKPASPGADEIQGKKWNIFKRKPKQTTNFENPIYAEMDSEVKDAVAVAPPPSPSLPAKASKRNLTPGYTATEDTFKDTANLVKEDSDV
Chain of megalin (binding to Hx) (P98158 26-4660): as above
Chain of megalin (binding to myoglobin) (P98158 26-4660): as above

For `CC1(C)C[C@@H]1C(=O)N/C(=C\CCCCSC[C@H](N)C(=O)O)C(=O)O` [cilastatin, (Z)-7-[[(R)-2-Amino-2-carboxyethyl]thio]-2-[[[(S)-2,2-dimethylcyclopropyl]carbonyl]amino]-2-heptenoic acid], the “number of urinary proteins having an SpC/L ratio of the cilastatin-treated group/control group of 2.0 or more” value in assay [1] came out at 63 kinds. Moreover, in assay [1] (setting [5]), the “SpC/L ratio, urinary Albumin” value was found to be 1.10; the “SpC/L ratio, urinary Clusterin” value amounted to 0.73; the “SpC/L ratio, urinary Transthyretin” value worked out at 1.00; the “SpC/L ratio, urinary Vitamin D-binding protein” value worked out at 0.80. Moreover, in assay [2], the “drop of quartz crystal signals on adding megalin to myoglobin-immobilized sensor (megalin-myoglobin binding)” value is “inhibited”. Besides, on megalin (binding to Hx), the “drop of quartz crystal signals on adding megalin to Hx-immobilized sensor (megalin-Hx binding)” value is “inhibited”. In addition, the “drop of quartz crystal signals on adding α1M to megalin-immobilized sensor (megalin-α1M binding)” value on megalin (binding to α1M) is given as “inhibited”. Also, the serum potassium entry in assay [3] is reported as “lower values than the control group”. In assay [4], the “amounts of myoglobin taken up into kidney tissues” value is given as “reduced”.

The values are drawn from patent publication US20230404958A1, “AGENT FOR […] DAMAGE INDUCED BY RHABDOMYOLYSIS” (Niigata University, priority 2021, published 2023).
